Experiments:
lipoamide = compound: NC(=O)CCCCC1CCSS1 [lipoamide]; experiment: thermal stability z-score vs DMSO; higher = more thermally stabilized by treatment; conditions: HeLa, lipoamide concentration 100 µM
Method: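 Cellular thermal proteome profiling in HeLa cells. Cells were treated with 100 µM lipoamide for 1 h, with or without 1 mM arsenate for a further 1 h, then heated to ten temperatures (37-66.3 °C), and soluble protein was quantified by TMT mass spectrometry relative to 0.1% DMSO controls. The thermal stability score (sum of log2 fold changes minus the abundance score) was transformed to a z-score; mean of n = 3 experiments.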

potassium arsenate = compound: O=[As]([O-])(O)O.[K+] [potassium arsenate]; experiment: as above; conditions: HeLa; arsenate concentration 1 mM
Method: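 Cellular thermal proteome profiling in HeLa cells treated with 1 mM arsenate for 1 h (DMSO pretreatment), heated to ten temperatures (37-66.3 °C). Soluble protein was quantified by TMT mass spectrometry relative to DMSO controls; the thermal stability score was transformed to a z-score; mean of n = 3 experiments.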

[1] = arsenate co-treatment: 1 mM arsenate 1 h
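Further: each temperature applied for 3 min, abundance score taken as mean log2 fold change at the two lowest temperatures, z-score obtained by mean subtraction and division by SD.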

Target: SLC30A7 (UniProt Q8NEW0)
- thermal stability z-score (lipoamide; [1]): -1.48
- thermal stability z-score (lipoamide; arsenate co-treatment: none): -1.78
- thermal stability z-score (potassium arsenate): 0.418

Target: SRP9 (UniProt P49458)
UniProt P49458, sequence (P49458 whole entry): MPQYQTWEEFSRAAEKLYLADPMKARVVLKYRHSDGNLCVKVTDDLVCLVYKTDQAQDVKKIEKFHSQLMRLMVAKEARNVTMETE
- thermal stability z-score (lipoamide; [1]): 0.432
- thermal stability z-score (lipoamide; arsenate co-treatment: none): 0.761
- thermal stability z-score (potassium arsenate): -0.335

Target: CNDP2 (UniProt Q96KP4)
- thermal stability z-score (lipoamide; [1]): 0.517
- thermal stability z-score (lipoamide; arsenate co-treatment: none): 0.0712
- thermal stability z-score (potassium arsenate): 0.248

Target: ACYP2 (UniProt P14621)
UniProt P14621, sequence (P14621 whole entry): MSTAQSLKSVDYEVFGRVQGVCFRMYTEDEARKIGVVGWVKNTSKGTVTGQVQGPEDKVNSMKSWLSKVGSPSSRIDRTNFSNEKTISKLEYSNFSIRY
- thermal stability z-score (lipoamide; [1]): 0.611
- thermal stability z-score (lipoamide; arsenate co-treatment: none): 0.261
- thermal stability z-score (potassium arsenate): -0.0225

Target: VPS4A (UniProt Q9UN37)
- thermal stability z-score (lipoamide; [1]): -0.367
- thermal stability z-score (lipoamide; arsenate co-treatment: none): -0.472
- thermal stability z-score (potassium arsenate): -0.19

Target: NPEPPS (UniProt P55786)
- thermal stability z-score (lipoamide; [1]): 0.502
- thermal stability z-score (lipoamide; arsenate co-treatment: none): 0.202
- thermal stability z-score (potassium arsenate): 0.725

Target: MAP2K4 (UniProt P45985)
- thermal stability z-score (lipoamide; [1]): -0.37
- thermal stability z-score (lipoamide; arsenate co-treatment: none): 0.139
- thermal stability z-score (potassium arsenate): -0.444

Target: PCNP (UniProt Q8WW12)
- thermal stability z-score (lipoamide; [1]): 0.549
- thermal stability z-score (lipoamide; arsenate co-treatment: none): 0.442
- thermal stability z-score (potassium arsenate): 0.289

Target: KBTBD6 (UniProt Q86V97)
- thermal stability z-score (lipoamide; [1]): -0.502
- thermal stability z-score (lipoamide; arsenate co-treatment: none): 0.182
- thermal stability z-score (potassium arsenate): -1.11

Target: MED7 (UniProt O43513)
- thermal stability z-score (lipoamide; [1]): -0.0337
- thermal stability z-score (lipoamide; arsenate co-treatment: none): -0.104
- thermal stability z-score (potassium arsenate): -0.328

Target: GTF3C5 (UniProt Q9Y5Q8)
UniProt Q9Y5Q8, sequence (Q9Y5Q8 whole entry): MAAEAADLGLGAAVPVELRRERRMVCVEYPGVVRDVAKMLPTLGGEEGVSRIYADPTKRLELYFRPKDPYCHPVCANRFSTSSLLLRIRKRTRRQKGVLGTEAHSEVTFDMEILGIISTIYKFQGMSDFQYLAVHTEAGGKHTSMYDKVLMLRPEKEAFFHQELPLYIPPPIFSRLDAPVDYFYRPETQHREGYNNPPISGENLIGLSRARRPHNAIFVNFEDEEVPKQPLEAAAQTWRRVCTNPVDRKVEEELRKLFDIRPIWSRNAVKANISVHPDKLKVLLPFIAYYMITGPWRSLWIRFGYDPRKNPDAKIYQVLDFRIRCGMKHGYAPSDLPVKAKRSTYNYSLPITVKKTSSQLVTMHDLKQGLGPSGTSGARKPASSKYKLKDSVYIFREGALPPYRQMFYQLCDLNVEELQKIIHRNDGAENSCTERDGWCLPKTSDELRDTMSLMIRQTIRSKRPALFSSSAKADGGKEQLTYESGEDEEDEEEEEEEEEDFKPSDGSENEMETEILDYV
- thermal stability z-score (lipoamide; [1]): 0.0669
- thermal stability z-score (lipoamide; arsenate co-treatment: none): 0.0127
- thermal stability z-score (potassium arsenate): -0.367

Target: AGMAT (UniProt Q9BSE5)
UniProt Q9BSE5, sequence (Q9BSE5 whole entry): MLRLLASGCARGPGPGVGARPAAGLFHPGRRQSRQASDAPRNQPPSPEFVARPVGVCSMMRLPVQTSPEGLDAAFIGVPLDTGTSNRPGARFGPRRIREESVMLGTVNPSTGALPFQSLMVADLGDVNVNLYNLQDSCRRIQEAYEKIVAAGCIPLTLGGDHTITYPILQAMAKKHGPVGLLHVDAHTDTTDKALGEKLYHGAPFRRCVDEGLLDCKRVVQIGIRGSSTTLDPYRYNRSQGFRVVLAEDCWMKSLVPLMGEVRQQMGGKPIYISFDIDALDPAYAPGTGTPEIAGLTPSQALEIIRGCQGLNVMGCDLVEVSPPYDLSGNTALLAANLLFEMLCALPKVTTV
- thermal stability z-score (lipoamide; [1]): 0.292
- thermal stability z-score (lipoamide; arsenate co-treatment: none): 0.565
- thermal stability z-score (potassium arsenate): 0.92

Target: BACH1 (UniProt O14867)
- thermal stability z-score (lipoamide; [1]): -0.551
- thermal stability z-score (lipoamide; arsenate co-treatment: none): -0.333
- thermal stability z-score (potassium arsenate): 0.169

Target: RPL17 (UniProt P18621)
- thermal stability z-score (lipoamide; [1]): 0.743
- thermal stability z-score (lipoamide; arsenate co-treatment: none): 0.704
- thermal stability z-score (potassium arsenate): -0.755

Target: ACY1 (UniProt Q03154)
- thermal stability z-score (lipoamide; [1]): 0.304
- thermal stability z-score (lipoamide; arsenate co-treatment: none): 0.38
- thermal stability z-score (potassium arsenate): 0.873

Target: RANBP6 (UniProt O60518)
UniProt O60518, sequence (O60518 whole entry): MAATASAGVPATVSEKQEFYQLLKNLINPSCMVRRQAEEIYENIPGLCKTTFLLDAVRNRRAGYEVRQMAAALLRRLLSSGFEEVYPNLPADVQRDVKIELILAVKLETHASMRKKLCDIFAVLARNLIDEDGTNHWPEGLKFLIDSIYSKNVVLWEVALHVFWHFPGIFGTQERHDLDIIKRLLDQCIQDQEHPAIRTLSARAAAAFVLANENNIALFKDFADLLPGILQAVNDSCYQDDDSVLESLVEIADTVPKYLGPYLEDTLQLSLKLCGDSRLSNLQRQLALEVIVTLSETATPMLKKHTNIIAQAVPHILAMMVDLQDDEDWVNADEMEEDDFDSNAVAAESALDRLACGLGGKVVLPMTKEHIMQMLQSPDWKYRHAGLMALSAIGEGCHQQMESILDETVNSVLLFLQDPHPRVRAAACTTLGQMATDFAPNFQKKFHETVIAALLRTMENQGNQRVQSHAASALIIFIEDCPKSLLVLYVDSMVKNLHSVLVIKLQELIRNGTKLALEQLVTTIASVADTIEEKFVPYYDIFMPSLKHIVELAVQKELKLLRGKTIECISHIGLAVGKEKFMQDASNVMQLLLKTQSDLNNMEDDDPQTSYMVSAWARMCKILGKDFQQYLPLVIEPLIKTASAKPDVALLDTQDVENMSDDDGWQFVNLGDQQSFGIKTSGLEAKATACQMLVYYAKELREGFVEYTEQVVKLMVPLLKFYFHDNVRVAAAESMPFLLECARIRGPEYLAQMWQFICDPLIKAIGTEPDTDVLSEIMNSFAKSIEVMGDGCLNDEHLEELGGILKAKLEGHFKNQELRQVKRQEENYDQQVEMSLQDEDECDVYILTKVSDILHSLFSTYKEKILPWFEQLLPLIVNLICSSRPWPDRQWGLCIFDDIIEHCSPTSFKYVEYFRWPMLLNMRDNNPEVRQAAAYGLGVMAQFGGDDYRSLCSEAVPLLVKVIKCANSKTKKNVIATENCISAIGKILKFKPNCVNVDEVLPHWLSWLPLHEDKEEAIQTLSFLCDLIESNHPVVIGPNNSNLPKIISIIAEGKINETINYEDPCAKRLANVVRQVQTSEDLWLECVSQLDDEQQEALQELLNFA
- thermal stability z-score (lipoamide; [1]): -0.296
- thermal stability z-score (lipoamide; arsenate co-treatment: none): -0.155
- thermal stability z-score (potassium arsenate): -0.131

Target: PCK2 (UniProt Q16822)
- thermal stability z-score (lipoamide; [1]): -0.107
- thermal stability z-score (lipoamide; arsenate co-treatment: none): -0.0889
- thermal stability z-score (potassium arsenate): 0.352

Target: LSG1 (UniProt Q9H089)
- thermal stability z-score (lipoamide; [1]): -0.18
- thermal stability z-score (lipoamide; arsenate co-treatment: none): 0.17
- thermal stability z-score (potassium arsenate): 3.55

Target: SETD7 (UniProt Q8WTS6)
- thermal stability z-score (lipoamide; [1]): -0.766
- thermal stability z-score (lipoamide; arsenate co-treatment: none): 0.0448
- thermal stability z-score (potassium arsenate): -0.402

Target: GNAQ (UniProt P50148)
UniProt P50148, sequence (P50148 whole entry): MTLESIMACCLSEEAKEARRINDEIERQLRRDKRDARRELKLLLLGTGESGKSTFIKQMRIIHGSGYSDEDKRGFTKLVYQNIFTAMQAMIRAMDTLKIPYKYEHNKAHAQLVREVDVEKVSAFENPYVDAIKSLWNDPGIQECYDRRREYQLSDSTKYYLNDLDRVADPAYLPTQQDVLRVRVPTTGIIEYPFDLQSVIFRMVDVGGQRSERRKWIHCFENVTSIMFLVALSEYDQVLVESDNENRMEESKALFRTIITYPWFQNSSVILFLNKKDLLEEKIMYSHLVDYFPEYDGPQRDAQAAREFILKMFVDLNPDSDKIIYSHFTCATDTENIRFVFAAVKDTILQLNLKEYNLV
- thermal stability z-score (lipoamide; [1]): -0.312
- thermal stability z-score (lipoamide; arsenate co-treatment: none): 0.15
- thermal stability z-score (potassium arsenate): -1.39

Target: EBNA1BP2 (UniProt Q99848)
- thermal stability z-score (lipoamide; [1]): 0.29
- thermal stability z-score (lipoamide; arsenate co-treatment: none): -0.281
- thermal stability z-score (potassium arsenate): 0.463

Target: ANP32A (UniProt P39687)
- thermal stability z-score (lipoamide; [1]): 0.324
- thermal stability z-score (lipoamide; arsenate co-treatment: none): 0.51
- thermal stability z-score (potassium arsenate): 0.197

Target: C9ORF142 (UniProt Q9BUH6)
- thermal stability z-score (lipoamide; [1]): -0.55
- thermal stability z-score (lipoamide; arsenate co-treatment: none): -0.635
- thermal stability z-score (potassium arsenate): -0.706

Target: EHBP1L1 (UniProt Q8N3D4)
- thermal stability z-score (lipoamide; [1]): -0.423
- thermal stability z-score (lipoamide; arsenate co-treatment: none): -0.0281
- thermal stability z-score (potassium arsenate): -0.3

Target: ANP32E (UniProt Q9BTT0)
- thermal stability z-score (lipoamide; [1]): -1.1
- thermal stability z-score (lipoamide; arsenate co-treatment: none): 0.32
- thermal stability z-score (potassium arsenate): -4

Target: TAP1 (UniProt Q03518)
- thermal stability z-score (lipoamide; [1]): -0.509
- thermal stability z-score (lipoamide; arsenate co-treatment: none): -0.0614
- thermal stability z-score (potassium arsenate): 1.47

Target: IARS2 (UniProt Q9NSE4)
- thermal stability z-score (lipoamide; [1]): -0.232
- thermal stability z-score (lipoamide; arsenate co-treatment: none): 0.259
- thermal stability z-score (potassium arsenate): -0.455

Target: FAU (UniProt P62861)
- thermal stability z-score (lipoamide; [1]): 1.7
- thermal stability z-score (lipoamide; arsenate co-treatment: none): 1.21
- thermal stability z-score (potassium arsenate): 1.15

Target: REPS1 (UniProt Q96D71)
UniProt Q96D71, sequence (Q96D71 whole entry): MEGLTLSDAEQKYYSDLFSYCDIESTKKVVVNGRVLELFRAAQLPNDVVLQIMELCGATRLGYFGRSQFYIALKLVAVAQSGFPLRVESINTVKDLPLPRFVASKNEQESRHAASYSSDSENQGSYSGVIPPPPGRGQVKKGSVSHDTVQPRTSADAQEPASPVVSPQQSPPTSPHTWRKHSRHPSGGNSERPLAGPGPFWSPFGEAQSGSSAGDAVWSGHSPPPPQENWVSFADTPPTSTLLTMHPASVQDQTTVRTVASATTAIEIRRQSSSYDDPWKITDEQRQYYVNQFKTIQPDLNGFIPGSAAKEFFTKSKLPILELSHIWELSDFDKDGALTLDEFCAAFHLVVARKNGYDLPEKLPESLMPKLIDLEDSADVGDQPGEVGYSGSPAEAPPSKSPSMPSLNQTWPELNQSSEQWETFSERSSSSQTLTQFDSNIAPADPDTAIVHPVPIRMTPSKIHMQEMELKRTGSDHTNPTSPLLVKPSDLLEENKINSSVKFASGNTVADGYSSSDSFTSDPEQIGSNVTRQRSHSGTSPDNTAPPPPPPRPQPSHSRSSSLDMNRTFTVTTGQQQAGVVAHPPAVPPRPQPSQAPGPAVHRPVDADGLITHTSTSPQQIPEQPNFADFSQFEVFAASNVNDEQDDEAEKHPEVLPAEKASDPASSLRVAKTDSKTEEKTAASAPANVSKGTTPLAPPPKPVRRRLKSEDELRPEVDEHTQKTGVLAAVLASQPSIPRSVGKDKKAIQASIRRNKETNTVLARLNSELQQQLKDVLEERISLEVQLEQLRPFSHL
- thermal stability z-score (lipoamide; [1]): -0.864
- thermal stability z-score (lipoamide; arsenate co-treatment: none): -0.26
- thermal stability z-score (potassium arsenate): 0.157

Target: VANGL1 (UniProt Q8TAA9)
- thermal stability z-score (lipoamide; [1]): 0.696
- thermal stability z-score (lipoamide; arsenate co-treatment: none): 0.817
- thermal stability z-score (potassium arsenate): -0.242

Target: OPA1 (UniProt O60313)
- thermal stability z-score (lipoamide; [1]): -0.697
- thermal stability z-score (lipoamide; arsenate co-treatment: none): -0.456
- thermal stability z-score (potassium arsenate): 0.749

Target: SOD1 (UniProt P00441)
- thermal stability z-score (lipoamide; [1]): -0.57
- thermal stability z-score (lipoamide; arsenate co-treatment: none): -0.258
- thermal stability z-score (potassium arsenate): -0.236

Target: THYN1 (UniProt Q9P016)
- thermal stability z-score (lipoamide; [1]): 0.476
- thermal stability z-score (lipoamide; arsenate co-treatment: none): 0.00625
- thermal stability z-score (potassium arsenate): -0.603

Target: PSMG1 (UniProt O95456)
- thermal stability z-score (lipoamide; [1]): 1.07
- thermal stability z-score (lipoamide; arsenate co-treatment: none): 0.507
- thermal stability z-score (potassium arsenate): 4.18

Target: B2M (UniProt P61769)
- thermal stability z-score (lipoamide; [1]): -0.115
- thermal stability z-score (lipoamide; arsenate co-treatment: none): -0.125
- thermal stability z-score (potassium arsenate): 1.06

Target: SGF29 (UniProt Q96ES7)
- thermal stability z-score (lipoamide; [1]): 0.571
- thermal stability z-score (lipoamide; arsenate co-treatment: none): 0.347
- thermal stability z-score (potassium arsenate): -1.03

Target: FURIN (UniProt P09958)
- thermal stability z-score (lipoamide; [1]): 0.3
- thermal stability z-score (lipoamide; arsenate co-treatment: none): 0.345
- thermal stability z-score (potassium arsenate): 0.11

Target: RPL27 (UniProt P61353)
- thermal stability z-score (lipoamide; [1]): 0.459
- thermal stability z-score (lipoamide; arsenate co-treatment: none): 0.431
- thermal stability z-score (potassium arsenate): -0.612

Target: HIP1R (UniProt O75146)
UniProt O75146, sequence (O75146 whole entry): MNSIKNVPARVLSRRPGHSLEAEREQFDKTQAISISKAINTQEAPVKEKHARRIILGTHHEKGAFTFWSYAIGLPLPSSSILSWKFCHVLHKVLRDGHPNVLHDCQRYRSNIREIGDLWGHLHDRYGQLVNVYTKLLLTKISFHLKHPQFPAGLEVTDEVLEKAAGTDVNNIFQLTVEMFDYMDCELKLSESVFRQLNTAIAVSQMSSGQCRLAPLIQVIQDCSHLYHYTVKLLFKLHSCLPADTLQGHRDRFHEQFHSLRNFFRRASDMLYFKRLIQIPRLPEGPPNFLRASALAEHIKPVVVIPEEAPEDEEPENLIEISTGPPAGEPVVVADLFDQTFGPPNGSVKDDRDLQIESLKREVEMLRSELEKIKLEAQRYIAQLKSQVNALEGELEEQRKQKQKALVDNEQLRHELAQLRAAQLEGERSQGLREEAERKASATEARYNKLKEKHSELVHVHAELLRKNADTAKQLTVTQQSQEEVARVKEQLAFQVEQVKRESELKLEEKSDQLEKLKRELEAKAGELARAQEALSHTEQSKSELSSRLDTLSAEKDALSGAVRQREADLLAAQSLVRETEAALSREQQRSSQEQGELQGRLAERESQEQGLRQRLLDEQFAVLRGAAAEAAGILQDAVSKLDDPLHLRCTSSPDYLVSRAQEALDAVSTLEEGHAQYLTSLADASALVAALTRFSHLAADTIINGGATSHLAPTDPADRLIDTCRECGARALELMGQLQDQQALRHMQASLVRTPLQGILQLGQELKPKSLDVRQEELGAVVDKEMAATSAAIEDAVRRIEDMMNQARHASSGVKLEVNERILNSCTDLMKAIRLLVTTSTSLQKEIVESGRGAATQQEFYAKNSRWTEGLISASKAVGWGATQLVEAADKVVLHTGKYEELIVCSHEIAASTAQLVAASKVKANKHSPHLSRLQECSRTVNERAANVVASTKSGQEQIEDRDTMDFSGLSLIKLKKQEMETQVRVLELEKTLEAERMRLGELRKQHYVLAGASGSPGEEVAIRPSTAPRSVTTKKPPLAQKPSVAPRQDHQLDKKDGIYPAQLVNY
- thermal stability z-score (lipoamide; [1]): 0.15
- thermal stability z-score (lipoamide; arsenate co-treatment: none): 0.28
- thermal stability z-score (potassium arsenate): -0.232

Target: PTMA (UniProt P06454)
- thermal stability z-score (lipoamide; [1]): 1.3
- thermal stability z-score (lipoamide; arsenate co-treatment: none): 1.23
- thermal stability z-score (potassium arsenate): 0.425

Target: RBMS1 (UniProt P29558)
UniProt P29558, sequence (P29558 whole entry): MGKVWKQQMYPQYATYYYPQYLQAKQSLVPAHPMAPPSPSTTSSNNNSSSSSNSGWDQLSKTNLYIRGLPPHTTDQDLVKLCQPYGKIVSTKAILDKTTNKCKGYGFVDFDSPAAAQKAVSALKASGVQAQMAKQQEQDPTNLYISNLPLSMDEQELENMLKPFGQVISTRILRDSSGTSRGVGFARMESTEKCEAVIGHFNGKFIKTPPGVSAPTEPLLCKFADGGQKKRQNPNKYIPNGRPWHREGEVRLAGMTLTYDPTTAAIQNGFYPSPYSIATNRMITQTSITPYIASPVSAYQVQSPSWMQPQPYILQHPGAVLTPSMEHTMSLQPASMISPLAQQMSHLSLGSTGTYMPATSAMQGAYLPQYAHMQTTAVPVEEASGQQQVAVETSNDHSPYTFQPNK
- thermal stability z-score (lipoamide; [1]): -0.643
- thermal stability z-score (lipoamide; arsenate co-treatment: none): 0.176
- thermal stability z-score (potassium arsenate): -0.265

Target: USP1 (UniProt O94782)
- thermal stability z-score (lipoamide; [1]): -0.779
- thermal stability z-score (lipoamide; arsenate co-treatment: none): -0.444
- thermal stability z-score (potassium arsenate): -0.221

Target: COPZ1 (UniProt P61923)
- thermal stability z-score (lipoamide; [1]): -0.374
- thermal stability z-score (lipoamide; arsenate co-treatment: none): 0.0476
- thermal stability z-score (potassium arsenate): 0.734

Target: CENPF (UniProt P49454)
- thermal stability z-score (lipoamide; [1]): 0.439
- thermal stability z-score (lipoamide; arsenate co-treatment: none): -0.0287
- thermal stability z-score (potassium arsenate): 1.73

Target: HIST1H4A (UniProt P62805)
- thermal stability z-score (lipoamide; [1]): 0.954
- thermal stability z-score (lipoamide; arsenate co-treatment: none): 0.814
- thermal stability z-score (potassium arsenate): 2.61

Target: ACTR1B (UniProt P42025)
- thermal stability z-score (lipoamide; [1]): 1.04
- thermal stability z-score (lipoamide; arsenate co-treatment: none): 0.945
- thermal stability z-score (potassium arsenate): 0.0363

Target: TNFAIP3 (UniProt P21580)
- thermal stability z-score (lipoamide; [1]): -0.409
- thermal stability z-score (lipoamide; arsenate co-treatment: none): -0.303
- thermal stability z-score (potassium arsenate): -0.522

Target: PDCD10 (UniProt Q9BUL8)
- thermal stability z-score (lipoamide; [1]): 0.00718
- thermal stability z-score (lipoamide; arsenate co-treatment: none): -0.0724
- thermal stability z-score (potassium arsenate): 0.151

Target: TMEM245 (UniProt Q9H330)
- thermal stability z-score (lipoamide; [1]): 1.28
- thermal stability z-score (lipoamide; arsenate co-treatment: none): 0.28
- thermal stability z-score (potassium arsenate): 1.86

Target: PALM (UniProt O75781)
- thermal stability z-score (lipoamide; [1]): -0.195
- thermal stability z-score (lipoamide; arsenate co-treatment: none): -0.143
- thermal stability z-score (potassium arsenate): -0.681

Target: MICALL2 (UniProt Q8IY33)
- thermal stability z-score (lipoamide; [1]): -0.157
- thermal stability z-score (lipoamide; arsenate co-treatment: none): 0.00775
- thermal stability z-score (potassium arsenate): -0.0438

Target: RPAP1 (UniProt Q9BWH6)
- thermal stability z-score (lipoamide; [1]): -0.806
- thermal stability z-score (lipoamide; arsenate co-treatment: none): -0.223
- thermal stability z-score (potassium arsenate): 0.256

Target: MIS12 (UniProt Q9H081)
UniProt Q9H081, sequence (Q9H081 whole entry): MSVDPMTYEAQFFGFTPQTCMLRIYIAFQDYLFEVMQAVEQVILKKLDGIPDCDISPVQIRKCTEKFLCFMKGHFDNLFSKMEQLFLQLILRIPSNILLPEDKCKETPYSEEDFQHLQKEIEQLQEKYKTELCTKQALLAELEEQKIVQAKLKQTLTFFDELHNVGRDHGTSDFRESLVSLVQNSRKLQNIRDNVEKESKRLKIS
- thermal stability z-score (lipoamide; [1]): -0.0248
- thermal stability z-score (lipoamide; arsenate co-treatment: none): -0.061
- thermal stability z-score (potassium arsenate): 0.00203

Target: TNRC6A (UniProt Q8NDV7)
- thermal stability z-score (lipoamide; [1]): -0.105
- thermal stability z-score (lipoamide; arsenate co-treatment: none): -0.121
- thermal stability z-score (potassium arsenate): -0.416

Target: CPS1 (UniProt P31327)
- thermal stability z-score (lipoamide; [1]): -0.756
- thermal stability z-score (lipoamide; arsenate co-treatment: none): 0.095
- thermal stability z-score (potassium arsenate): -1.39

— the supplement of paper PMC12463676, “Small-molecule dissolution of stress granules by redox modulation benefits ALS models” (Nature Chemical Biology, 2025)
